Results taken from ChEMBL document CHEMBL1153601, “Rapid identification of improved protein ligands using peptoid microarrays” (Bioorg Med Chem Lett, 2009).
Activity calls are given as the source filed them. No cut-off for these calls is given here. Where a SMILES comes first, the peptide text is derived from it. [ ]: non-standard residue; d: D form. Gly(N-piperonyl) = O=C(O)CNCc1ccc2c(c1)OCO2; Gly(N-propargyl) = C#CCNCC(=O)O; NFurfurylGly = O=C(O)CNCc1ccco1; NAllylGly = C=CCNCC(=O)O; Nleu = CC(C)CNCC(=O)O; Nlys = NCCCCNCC(=O)O

How the values were obtained:
[1] = molecular target: T1, CREB-binding protein (Homo sapiens, UniProt Q92793); assay: Binding affinity to histidine tagged KIX domain of CREB-binding protein by fluorescence polarization assay
Target sequence in this assay (Q92793 whole entry, the tested form may be a part): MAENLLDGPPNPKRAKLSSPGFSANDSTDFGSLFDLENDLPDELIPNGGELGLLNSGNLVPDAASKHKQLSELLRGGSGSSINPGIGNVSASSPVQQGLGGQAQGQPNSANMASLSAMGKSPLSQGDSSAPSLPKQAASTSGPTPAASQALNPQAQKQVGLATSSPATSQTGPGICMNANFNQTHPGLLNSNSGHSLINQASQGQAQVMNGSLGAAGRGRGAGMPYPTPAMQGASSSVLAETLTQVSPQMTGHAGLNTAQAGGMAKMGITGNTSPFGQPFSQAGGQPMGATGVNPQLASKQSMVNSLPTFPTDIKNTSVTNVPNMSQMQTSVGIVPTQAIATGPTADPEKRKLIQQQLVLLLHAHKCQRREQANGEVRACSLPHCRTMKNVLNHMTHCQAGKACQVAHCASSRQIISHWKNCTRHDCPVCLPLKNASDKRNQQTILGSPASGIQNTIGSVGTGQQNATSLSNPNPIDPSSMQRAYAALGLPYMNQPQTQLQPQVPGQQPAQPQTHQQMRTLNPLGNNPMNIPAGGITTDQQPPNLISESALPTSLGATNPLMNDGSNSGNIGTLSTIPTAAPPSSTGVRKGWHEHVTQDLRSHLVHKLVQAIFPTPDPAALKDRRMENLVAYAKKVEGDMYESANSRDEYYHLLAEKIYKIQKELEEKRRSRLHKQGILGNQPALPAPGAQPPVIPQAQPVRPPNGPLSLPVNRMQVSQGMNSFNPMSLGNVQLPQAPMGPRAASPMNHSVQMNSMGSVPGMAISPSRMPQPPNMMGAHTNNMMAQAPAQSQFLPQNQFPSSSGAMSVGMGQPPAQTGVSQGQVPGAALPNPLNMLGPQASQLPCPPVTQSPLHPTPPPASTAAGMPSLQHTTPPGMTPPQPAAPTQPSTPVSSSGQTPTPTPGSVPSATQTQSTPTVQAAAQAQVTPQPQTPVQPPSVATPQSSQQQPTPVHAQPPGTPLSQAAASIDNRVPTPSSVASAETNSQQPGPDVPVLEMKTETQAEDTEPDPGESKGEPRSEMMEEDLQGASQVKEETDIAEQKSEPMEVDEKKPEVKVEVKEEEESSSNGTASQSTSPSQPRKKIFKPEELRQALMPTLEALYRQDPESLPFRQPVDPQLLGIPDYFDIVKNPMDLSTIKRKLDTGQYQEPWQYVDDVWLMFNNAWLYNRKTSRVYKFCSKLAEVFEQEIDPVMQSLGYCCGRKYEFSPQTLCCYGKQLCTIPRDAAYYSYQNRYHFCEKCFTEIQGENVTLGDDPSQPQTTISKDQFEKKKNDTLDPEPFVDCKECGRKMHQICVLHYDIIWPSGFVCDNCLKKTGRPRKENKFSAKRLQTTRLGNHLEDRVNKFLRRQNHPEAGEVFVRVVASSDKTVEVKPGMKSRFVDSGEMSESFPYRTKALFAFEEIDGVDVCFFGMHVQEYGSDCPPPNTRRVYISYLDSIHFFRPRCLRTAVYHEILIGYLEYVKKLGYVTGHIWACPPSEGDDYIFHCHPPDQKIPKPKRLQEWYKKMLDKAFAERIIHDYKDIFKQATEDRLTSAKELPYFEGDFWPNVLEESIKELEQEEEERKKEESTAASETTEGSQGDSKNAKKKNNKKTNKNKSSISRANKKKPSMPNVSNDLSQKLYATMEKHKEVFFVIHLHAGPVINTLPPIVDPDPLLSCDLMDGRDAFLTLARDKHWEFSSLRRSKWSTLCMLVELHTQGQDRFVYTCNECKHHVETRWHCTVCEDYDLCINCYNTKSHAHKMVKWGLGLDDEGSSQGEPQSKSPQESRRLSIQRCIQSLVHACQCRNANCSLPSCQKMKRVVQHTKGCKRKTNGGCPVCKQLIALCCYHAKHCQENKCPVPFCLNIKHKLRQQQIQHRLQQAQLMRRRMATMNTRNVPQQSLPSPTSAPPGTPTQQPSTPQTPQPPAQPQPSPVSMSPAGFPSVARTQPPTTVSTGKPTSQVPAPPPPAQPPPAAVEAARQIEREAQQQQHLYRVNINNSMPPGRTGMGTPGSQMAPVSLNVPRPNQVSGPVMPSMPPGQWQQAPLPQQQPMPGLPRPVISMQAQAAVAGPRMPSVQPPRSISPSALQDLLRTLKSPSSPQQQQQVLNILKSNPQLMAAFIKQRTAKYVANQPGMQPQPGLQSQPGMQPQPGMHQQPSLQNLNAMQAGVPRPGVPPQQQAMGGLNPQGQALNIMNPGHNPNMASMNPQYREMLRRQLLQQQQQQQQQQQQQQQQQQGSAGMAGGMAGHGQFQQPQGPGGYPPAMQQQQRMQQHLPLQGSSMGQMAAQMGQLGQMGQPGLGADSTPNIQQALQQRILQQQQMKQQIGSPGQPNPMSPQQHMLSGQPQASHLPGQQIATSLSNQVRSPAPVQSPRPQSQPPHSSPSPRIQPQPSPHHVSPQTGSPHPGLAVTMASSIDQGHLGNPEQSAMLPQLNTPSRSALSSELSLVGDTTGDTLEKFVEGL

[2] = molecular target: T1, CREB-binding protein; assay: Binding affinity to histidine tagged KIX domain of CREB-binding protein expressed in Escherichia coli by affinity purification assay
Target sequence in this assay (Q92793 2-2442 limits assumed): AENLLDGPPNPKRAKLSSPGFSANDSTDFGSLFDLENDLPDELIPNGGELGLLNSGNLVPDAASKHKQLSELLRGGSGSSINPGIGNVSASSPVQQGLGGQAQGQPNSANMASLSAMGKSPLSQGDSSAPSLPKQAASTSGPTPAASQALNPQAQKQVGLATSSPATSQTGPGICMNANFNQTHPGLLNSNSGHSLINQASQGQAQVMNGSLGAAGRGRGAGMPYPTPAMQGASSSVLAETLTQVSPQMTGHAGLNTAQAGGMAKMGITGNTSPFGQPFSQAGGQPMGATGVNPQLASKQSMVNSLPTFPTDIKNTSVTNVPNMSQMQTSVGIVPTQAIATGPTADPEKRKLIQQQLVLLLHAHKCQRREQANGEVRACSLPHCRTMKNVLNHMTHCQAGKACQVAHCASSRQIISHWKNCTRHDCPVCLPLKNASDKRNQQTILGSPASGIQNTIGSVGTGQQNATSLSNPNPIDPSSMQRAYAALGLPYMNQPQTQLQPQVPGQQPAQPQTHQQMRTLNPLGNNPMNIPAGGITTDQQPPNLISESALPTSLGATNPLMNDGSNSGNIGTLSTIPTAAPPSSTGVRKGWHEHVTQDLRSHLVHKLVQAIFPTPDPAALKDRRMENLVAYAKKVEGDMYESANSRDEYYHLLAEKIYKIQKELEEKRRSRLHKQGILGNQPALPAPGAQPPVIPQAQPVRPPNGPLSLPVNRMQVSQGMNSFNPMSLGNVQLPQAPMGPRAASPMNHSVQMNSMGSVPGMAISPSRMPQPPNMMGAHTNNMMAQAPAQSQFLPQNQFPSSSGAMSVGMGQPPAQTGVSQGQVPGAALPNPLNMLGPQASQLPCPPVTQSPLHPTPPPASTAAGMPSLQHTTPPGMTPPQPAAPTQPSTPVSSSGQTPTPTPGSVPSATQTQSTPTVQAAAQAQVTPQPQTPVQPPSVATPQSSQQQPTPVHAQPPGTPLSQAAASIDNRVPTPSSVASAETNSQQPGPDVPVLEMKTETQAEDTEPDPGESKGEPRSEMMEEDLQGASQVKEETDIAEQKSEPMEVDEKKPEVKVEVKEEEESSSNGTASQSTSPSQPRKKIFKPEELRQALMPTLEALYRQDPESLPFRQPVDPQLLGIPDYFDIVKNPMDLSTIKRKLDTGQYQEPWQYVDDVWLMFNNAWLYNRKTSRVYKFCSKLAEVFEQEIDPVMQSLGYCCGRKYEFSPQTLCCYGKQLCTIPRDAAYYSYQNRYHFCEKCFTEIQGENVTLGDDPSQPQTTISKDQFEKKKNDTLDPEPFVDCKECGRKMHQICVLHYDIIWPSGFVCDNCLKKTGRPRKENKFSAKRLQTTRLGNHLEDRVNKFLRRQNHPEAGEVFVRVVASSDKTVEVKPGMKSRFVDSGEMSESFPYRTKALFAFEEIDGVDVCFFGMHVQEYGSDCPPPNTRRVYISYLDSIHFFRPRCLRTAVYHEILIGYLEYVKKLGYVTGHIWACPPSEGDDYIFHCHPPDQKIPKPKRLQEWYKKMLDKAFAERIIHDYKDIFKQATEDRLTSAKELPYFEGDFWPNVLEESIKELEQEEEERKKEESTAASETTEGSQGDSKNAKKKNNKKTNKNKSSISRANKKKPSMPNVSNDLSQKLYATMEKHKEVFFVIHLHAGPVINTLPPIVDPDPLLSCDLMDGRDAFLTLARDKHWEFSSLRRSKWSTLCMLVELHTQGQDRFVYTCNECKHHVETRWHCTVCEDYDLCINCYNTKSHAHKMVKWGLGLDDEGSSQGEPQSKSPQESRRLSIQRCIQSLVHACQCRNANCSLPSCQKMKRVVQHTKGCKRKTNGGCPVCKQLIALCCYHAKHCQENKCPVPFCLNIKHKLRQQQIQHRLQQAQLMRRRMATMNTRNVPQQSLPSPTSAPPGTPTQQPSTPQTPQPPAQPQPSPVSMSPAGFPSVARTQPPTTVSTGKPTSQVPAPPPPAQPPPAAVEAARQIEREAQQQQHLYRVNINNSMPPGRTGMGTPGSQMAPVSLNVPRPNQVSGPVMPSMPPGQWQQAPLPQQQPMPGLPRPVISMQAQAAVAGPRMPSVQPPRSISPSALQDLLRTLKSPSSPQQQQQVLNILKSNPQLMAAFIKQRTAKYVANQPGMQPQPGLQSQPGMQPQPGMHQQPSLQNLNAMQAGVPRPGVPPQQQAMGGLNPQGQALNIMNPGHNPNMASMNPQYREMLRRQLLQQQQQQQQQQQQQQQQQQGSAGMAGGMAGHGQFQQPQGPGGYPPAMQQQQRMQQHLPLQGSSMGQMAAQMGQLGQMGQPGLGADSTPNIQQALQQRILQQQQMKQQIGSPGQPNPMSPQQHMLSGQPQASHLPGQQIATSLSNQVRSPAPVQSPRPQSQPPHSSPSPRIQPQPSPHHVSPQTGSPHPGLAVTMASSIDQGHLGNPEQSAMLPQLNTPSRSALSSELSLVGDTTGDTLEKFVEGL

C=CCN(CC(=O)N(CC(N)=O)CC(C)C)C(=O)CN(Cc1ccco1)C(=O)CN(Cc1ccco1)C(=O)CN(Cc1ccco1)C(=O)CN(CC(C)C)C(=O)CNCc1cn(CCCCN(CC(N)=O)C(=O)CN(Cc2ccc3c(c2)OCO3)C(=O)CN(CCCCN)C(=O)CN(Cc2ccc3c(c2)OCO3)C(=O)CN(CC(C)C)C(=O)CN(CCCCN)C(=O)CNCc2ccc3c(c2)OCO3)nn1
Kd [1]: 8.3 µM

CC(C)CN(CC(=O)N(CCCCN)CC(=O)N(CC(N)=O)Cc1ccc2c(c1)OCO2)C(=O)CN(Cc1ccc2c(c1)OCO2)C(=O)CN(CCCCN)C(=O)CNCc1ccc2c(c1)OCO2 (H-[Gly(N-piperonyl)][Nlys][Gly(N-piperonyl)][Nleu][Nlys][Gly(N-piperonyl)]-NH2)
Kd [1]: 195 µM | Activity [2]: inactive

C#CCNCC(=O)N(CC(=O)N(CC(=O)N(CC(=O)N(CC(=O)N(CC=C)CC(=O)N(CC(N)=O)CC(C)C)Cc1ccco1)Cc1ccco1)Cc1ccco1)CC(C)C (H-[Gly(N-propargyl)][Nleu][NFurfurylGly][NFurfurylGly][NFurfurylGly][NAllylGly][Nleu]-NH2)
Kd [1]: 4.6 µM | Activity [2]: Active

CC(C)CN(CC(=O)N(CC(=O)N(CCCCN)CC(=O)N(CC(=O)N(CCCCn1cc(CNCC(=O)N(CC(=O)N(CCO)CC(=O)N(CC(=O)N(CC(=O)N(CCCCN)CC(=O)N(CC(N)=O)Cc2ccco2)Cc2ccco2)Cc2ccc3c(c2)OCO3)Cc2ccco2)nn1)CC(N)=O)Cc1ccc2c(c1)OCO2)Cc1ccc2c(c1)OCO2)C(=O)CN(CCCCN)C(=O)CNCc1ccc2c(c1)OCO2
Kd [1]: 72.8 µM
